PubChem BioAssay AID1389 (Sanford-Burnham Center for Chemical Genomics, 2008)
Activity calls are given as the source filed them.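 Rule for the calls: active = no visible ATF-4 stress protein band on the western blot after compound pretreatment and chemical ER stress; inactive = the rest.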

Test system: CSM14.1 cells, thapsigargin-induced ATF-4 Western blot
Assay: ER stress ATF-4 upregulation inhibition – CSM14.1 cells, thapsigargin, Western blot, mechanism study for ER stress cell death inhibitors, late-stage follow-up (AID 1389)

| Compound | outcome |
| --- | --- |
| COc1ccc(C2CC(=O)C3=C(C2)Nc2ccccc2NC3c2cccc(C(F)(F)F)c2)cc1OC (stereo unspecified) | inactive |
| CC1(C)CC(=O)C2=C(C1)Nc1ccccc1NC2c1ccc(-c2ccccc2)cc1 (stereo unspecified) | inactive |
| CCCOc1ccc(C2Nc3ccccc3NC3=C2C(=O)CC(c2ccc(OC)c(OC)c2)C3)cc1 (stereo unspecified) | active |
| O=C1CC(c2ccccc2)CC2=C1C(c1c(F)cccc1Cl)Nc1ccccc1N2 (stereo unspecified) | inactive |
| CCOc1cc(C2Nc3ccccc3NC3=C2C(=O)CC(c2ccc(OC)cc2)C3)cc(Cl)c1O (stereo unspecified) | inactive |
| COc1ccc(C2CC(=O)C3=C(C2)Nc2ccccc2NC3c2cccc(Oc3ccccc3)c2)cc1OC (stereo unspecified) | inactive |
| CSc1ccc(C2Nc3ccccc3NC3=C2C(=O)CC(c2ccccc2)C3)cc1 (stereo unspecified) | inactive |
| COc1ccc(C2CC(=O)C3=C(C2)Nc2ccccc2NC3c2cc(C)ccc2C)cc1 (stereo unspecified) | active |
| COc1ccc(C2CC(=O)C3=C(C2)Nc2ccccc2NC3c2cccc(Br)c2)cc1OC (stereo unspecified) | inactive |
| COc1ccc(C2CC(=O)C3=C(C2)Nc2ccccc2NC3c2ccccc2C(F)(F)F)cc1OC (stereo unspecified) | inactive |
| CCOc1cccc(C2Nc3ccccc3NC3=C2C(=O)CC(c2ccc(OC)cc2)C3)c1 (stereo unspecified) | inactive |
